We go through one molecule from the NIST ThermoML archive (doi:10.1016/j.tca.2005.06.034).

± gives the expanded uncertainty stated by the source.

A short description of data set [1]: Molar enthalpy of transition or fusion. As to conditions: Crystal; DSC.
For data set [2] the following is noted: Crystal.

For `CN1N=N[NH+](N)C1N.O=[N+]([O-])[O-]` (stereo not drawn) [1,5-diamino-4-methyl-4,5-dihydro-1H-tetrazol-1-ium nitrate], the “Molar enthalpy of transition or fusion” value in data set [1] amounted to 5.16e-06 ± 1.7e-07 kcal/mol. Moreover, the mass density in data set [2] (571.3 K, 101.33 kPa, X-ray) was 1506 ± 2 kg/m3. Besides, the Normal melting temperature in data set [2] (DTA) was 121.00 ± 1 °C.
